Seven compounds from US20240158348A1, “HERBICIDAL CYCLIC AMIDES N-SUBSTITUTED WITH A HALOALKYLSULFONYLANILIDE GROUP” (FMC Corporation, priority 2021, published 2024) can be followed below.

Holding throughout (type): in vivo
The subject of assay [1] is wheat (Triticum aestivum). Nature of the assay: Test C postemergence, wheat. As to conditions: visual injury, 0 to 100 scale (0 no effect, 100 complete control). In outline: (§1)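 Plants grown in a sand and loam soil blend received the formulated test chemicals either as a preemergence soil-directed spray or postemergence at 2 to 10 cm height. After 10 or 12 greenhouse days, injury was assessed visually, with 100 meaning complete control.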

Assay [2] concerns pigweed, palmer (palmer amaranth, Amaranthus palmeri). Nature of the assay: Test C preemergence, palmer amaranth. Conditions: 0 is no effect, 100 is complete control. The method, boiled down: as §1
Assay [3] has as its system ragweed (common ragweed, Ambrosia artemisiifolia). Nature of the assay: Test C preemergence, ragweed. Conditions: 0 is no effect, 100 is complete control. In outline:
as §1

Assay [4] deals with wheat (Triticum aestivum). Nature of the assay: Test C preemergence, wheat. Conditions: 0 is no effect, 100 is complete control.
The subject of assay [5] is oat, wild (wild oat, Avena fatua). Nature of the assay: Test C postemergence, wild oat. Conditions: visual injury, 0 to 100 scale (0 no effect, 100 complete control).
The test system of assay [6] is blackgrass (Alopecurus myosuroides). Nature of the assay: Test C postemergence, blackgrass. Conditions: visual injury, 0 to 100 scale (0 no effect, 100 complete control). The method, boiled down: as §1
The test system of another assay is rice (Oryza sativa). The assay can be described thus: Test D flooded paddy test, rice. Conditions: 250 g ai/ha, Flood; applied to paddy water at 2-leaf stage; visual rating after 13 days; scale 0 (no effect) to 100 (complete control). More on the design: key: 0 = no effect, 100 = complete control. The method, boiled down:
(§2)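 Pots holding 2-leaf-stage plants were flooded 3 cm deep and dosed via the water, which stayed at that level. After 13 greenhouse days, injury was scored visually against untreated controls, 0 (none) to 100 (complete control); a dash marks no test result.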

For assay [7], the system named is horseweed (Erigeron canadensis). Nature of the assay: Test C postemergence, horseweed. Conditions: visual injury, 0 to 100 scale (0 no effect, 100 complete control). The method, boiled down: as §1
Assay [8] relates to ducksalad (Heteranthera limosa). Nature of the assay: Test D flooded paddy test, ducksalad. As to conditions: 250 g ai/ha, Flood; applied to paddy water at 2-leaf stage; visual rating after 13 days; scale 0 (no effect) to 100 (complete control). More on the design: key: 0 = no effect, 100 = complete control. The method, boiled down: as §2

`Cc1cc(C)c(N(COC(=O)C(C)(C)C)S(=O)(=O)C(F)(F)F)cc1N1CCC(OCC2CC(F)(F)C2)C1=O` (stereo not drawn) [Compound 55]: the “Wheat plant response rating” value came out at 20 in assay [1] (31 g ai/ha Postemergence) and 70 in assay [1] (125 g ai/ha Postemergence). Besides, the “Plant response rating (0 to 100 scale), Pigweed, Palmer” value (from here on “Plant response rating … Palmer”) is listed as 0 in [2] (31 g ai/ha Preemergence) and 30 in assay [2] (125 g ai/ha Preemergence). Further, the “Plant response rating (0 to 100 scale), Ragweed” value (“Plant response rating … Ragweed” for short) in assay [3] (125 g ai/ha Preemergence) is reported as 40. Also, the figures for the “Plant response rating (0 to 100 scale), Wheat” value in assay [4] (31 g ai/ha Preemergence) and in assay [4] (125 g ai/ha Preemergence) were 10 and 40, respectively. Moreover, the “Oat, Wild plant response rating” value in [5] (31 g ai/ha Postemergence) is on record as 20; in [5] (125 g ai/ha Postemergence), 30. Besides, the results for the “Blackgrass plant response rating” value in assay [6] (31 g ai/ha Postemergence) and in [6] (125 g ai/ha Postemergence) were 0 and 40, respectively. In the assay on rice (Oryza sativa), the “Plant response rating, Rice” value was determined as 15. Also, the “Horseweed plant response rating” value in assay [7] (31 g ai/ha Postemergence) and in [7] (125 g ai/ha Postemergence) was 80 in each case. Moreover, the “Plant response rating, Ducksalad” value in assay [8] turned out to be 90.

For the compound `Cc1cc(C)c(N2CCC(OCC3CCCC3)C2=O)cc1NS(=O)(=O)C(F)(F)F` (stereo not drawn) [Compound 57], the “Wheat plant response rating” value in assay [1] (31 g ai/ha Postemergence) and in assay [1] (125 g ai/ha Postemergence) was 70 throughout. Moreover, the “Plant response rating … Palmer” value in [2] (31 g ai/ha Preemergence) and in assay [2] (125 g ai/ha Preemergence) was 100 in each case. For the same compound, the figures for the “Plant response rating … Ragweed” value in [3] (31 g ai/ha Preemergence) and in [3] (125 g ai/ha Preemergence) were 0 and 80, respectively. Besides, the “Plant response rating (0 to 100 scale), Wheat” value in assay [4] (31 g ai/ha Preemergence) came to 20; in assay [4] (125 g ai/ha Preemergence) it was 80. Besides, the “Oat, Wild plant response rating” value in assay [5] (31 g ai/ha Postemergence) and in assay [5] (125 g ai/ha Postemergence) was 10 each time. In addition, the “Blackgrass plant response rating” value is 40 in assay [6] (31 g ai/ha Postemergence) and 80 in assay [6] (125 g ai/ha Postemergence). In addition, the “Plant response rating, Rice” value with rice (Oryza sativa) turned out to be 10. In addition, the results for the “Horseweed plant response rating” value in assay [7] (31 g ai/ha Postemergence) and in assay [7] (125 g ai/ha Postemergence) were 0 and 80, respectively. For the same compound, the “Plant response rating, Ducksalad” value in assay [8] is 90.

As to `C#CC(C)OC1CCN(c2cc(NS(=O)(=O)C(F)(F)F)c(C)cc2C)C1=O` (stereo not drawn) [Compound 58], the “Wheat plant response rating” value in assay [1] (31 g ai/ha Postemergence) and in [1] (125 g ai/ha Postemergence) was 70 in each case. The “Plant response rating … Palmer” value in assay [2] (31 g ai/ha Preemergence) and in [2] (125 g ai/ha Preemergence) was 100 throughout. In addition, the “Plant response rating … Ragweed” value in assay [3] (31 g ai/ha Preemergence) was 80; in [3] (125 g ai/ha Preemergence), 90. Besides, the “Plant response rating (0 to 100 scale), Wheat” value in assay [4] (31 g ai/ha Preemergence) was 90; in [4] (125 g ai/ha Preemergence), 100. Besides, the “Oat, Wild plant response rating” value in [5] (31 g ai/ha Postemergence) worked out at 60; in assay [5] (125 g ai/ha Postemergence), 90. The “Blackgrass plant response rating” value is 50 in assay [6] (31 g ai/ha Postemergence) and 70 in assay [6] (125 g ai/ha Postemergence). Also, the “Plant response rating, Rice” value with rice (Oryza sativa) is 60. Besides, the “Horseweed plant response rating” value in assay [7] (31 g ai/ha Postemergence) and in assay [7] (125 g ai/ha Postemergence) was 90 in each case. Besides, the “Plant response rating, Ducksalad” value in assay [8] was 80.

As for `C=C(C)COC1CCN(c2cc(NS(=O)(=O)C(F)(F)F)c(C)cc2C)C1=O` (stereo not drawn) [Compound 59], the entries for the “Wheat plant response rating” value in assay [1] (31 g ai/ha Postemergence) and in [1] (125 g ai/ha Postemergence) were 50 and 80, respectively. Besides, the “Plant response rating … Palmer” value in assay [2] (31 g ai/ha Preemergence) and in assay [2] (125 g ai/ha Preemergence) was 100 each time. Besides, the “Plant response rating … Ragweed” value in assay [3] (31 g ai/ha Preemergence) was 50; in assay [3] (125 g ai/ha Preemergence) it was 70. Further, the “Plant response rating (0 to 100 scale), Wheat” value in assay [4] (31 g ai/ha Preemergence) came out at 40; in assay [4] (125 g ai/ha Preemergence), 100. For the same compound, the “Oat, Wild plant response rating” value in [5] (31 g ai/ha Postemergence) was 30; in [5] (125 g ai/ha Postemergence), 90. The “Blackgrass plant response rating” value in assay [6] (31 g ai/ha Postemergence) is given as 10; in assay [6] (125 g ai/ha Postemergence) it was 80. The “Plant response rating, Rice” value in the assay with rice (Oryza sativa) is reported as 40. Also, the “Horseweed plant response rating” value in assay [7] (31 g ai/ha Postemergence) is given as 20; in [7] (125 g ai/ha Postemergence), 80. The “Plant response rating, Ducksalad” value in assay [8] is listed as 80.

Consider `Cc1cc(C)c(N2CCC(OCc3ccccc3)C2=O)cc1NS(=O)(=O)C(F)(F)F` (stereo not drawn) [Compound 61], for which the “Wheat plant response rating” value came out at 70 in assay [1] (31 g ai/ha Postemergence) and 80 in [1] (125 g ai/ha Postemergence). Further, the “Plant response rating … Palmer” value in assay [2] (31 g ai/ha Preemergence) and in [2] (125 g ai/ha Preemergence) was 100 throughout. Besides, the entries for the “Plant response rating … Ragweed” value in assay [3] (31 g ai/ha Preemergence) and in [3] (125 g ai/ha Preemergence) were 0 and 90, respectively. Also, the “Plant response rating (0 to 100 scale), Wheat” value in assay [4] (31 g ai/ha Preemergence) is reported as 30; in assay [4] (125 g ai/ha Preemergence), 100. The results for the “Oat, Wild plant response rating” value in [5] (31 g ai/ha Postemergence) and in [5] (125 g ai/ha Postemergence) were 20 and 80, respectively. For the same compound, the “Blackgrass plant response rating” value is reported as 30 in [6] (31 g ai/ha Postemergence) and 70 in assay [6] (125 g ai/ha Postemergence). The “Plant response rating, Rice” value in the assay on rice (Oryza sativa) amounted to 20. The “Horseweed plant response rating” value in assay [7] (31 g ai/ha Postemergence) and in assay [7] (125 g ai/ha Postemergence) was 60 each time. Moreover, the “Plant response rating, Ducksalad” value in assay [8] was 75.

For `Cc1c(NS(=O)(=O)C(F)(F)F)cc(N2CCC(OCC3CC3)C2=O)c(C)c1F` (stereo not drawn) [Compound 63], the entries for the “Wheat plant response rating” value in assay [1] (31 g ai/ha Postemergence) and in [1] (125 g ai/ha Postemergence) were 10 and 40, respectively. Besides, the “Plant response rating … Palmer” value in [2] (31 g ai/ha Preemergence) and in [2] (125 g ai/ha Preemergence) was 100 throughout. Also, the entries for the “Plant response rating … Ragweed” value in assay [3] (31 g ai/ha Preemergence) and in assay [3] (125 g ai/ha Preemergence) were 90 and 100, respectively. Moreover, the “Plant response rating (0 to 100 scale), Wheat” value in assay [4] (31 g ai/ha Preemergence) is listed as 80; in [4] (125 g ai/ha Preemergence) it was 100. Further, the “Oat, Wild plant response rating” value was 0 in assay [5] (31 g ai/ha Postemergence) and 40 in [5] (125 g ai/ha Postemergence). Also, the “Blackgrass plant response rating” value is reported as 0 in assay [6] (31 g ai/ha Postemergence) and 30 in [6] (125 g ai/ha Postemergence). The “Plant response rating, Rice” value with rice (Oryza sativa) is on record as 45. Besides, the “Horseweed plant response rating” value in assay [7] (31 g ai/ha Postemergence) and in assay [7] (125 g ai/ha Postemergence) was 90 in each case. Also, the “Plant response rating, Ducksalad” value in assay [8] is 95.

On to `Cc1c(NS(=O)(=O)C(F)(F)F)cc(N2CCC(OCC3CCC3)C2=O)c(C)c1F` (stereo not drawn) [Compound 64], for which the “Wheat plant response rating” value was 0 in [1] (31 g ai/ha Postemergence) and 20 in assay [1] (125 g ai/ha Postemergence). Besides, the “Plant response rating … Palmer” value in assay [2] (31 g ai/ha Preemergence) and in assay [2] (125 g ai/ha Preemergence) was 100 throughout. Further, the “Plant response rating … Ragweed” value in [3] (31 g ai/ha Preemergence) turned out to be 90; in assay [3] (125 g ai/ha Preemergence), 100. In addition, the “Plant response rating (0 to 100 scale), Wheat” value in assay [4] (31 g ai/ha Preemergence) worked out at 20; in assay [4] (125 g ai/ha Preemergence) it was 70. The “Oat, Wild plant response rating” value was 0 in assay [5] (31 g ai/ha Postemergence) and 10 in [5] (125 g ai/ha Postemergence). For the same compound, the figures for the “Blackgrass plant response rating” value in [6] (31 g ai/ha Postemergence) and in assay [6] (125 g ai/ha Postemergence) were 0 and 20, respectively. Further, the “Plant response rating, Rice” value in the assay with rice (Oryza sativa) worked out at 15. Moreover, the figures for the “Horseweed plant response rating” value in assay [7] (31 g ai/ha Postemergence) and in assay [7] (125 g ai/ha Postemergence) were 10 and 60, respectively. Moreover, the “Plant response rating, Ducksalad” value in assay [8] is 80.
